A short description of series [1]: Synthesis tests of cocamidopropylamine oxide with candidate inhibitors: colour of the final product. The following applies: additive 0,1% by weight on amido-amine. Type of series: physicochemical. As to the method: (§1) To a three-neck flask of 1000 ml, demi-water and citric acid were added. The acid was added in order to keep the pH of the reaction mixture below 9. Subsequently, cocamidopropylamine and hydrogen peroxide were added. The reaction mixture was heated to a desired temperature of either 50 °C or 70 °C. Upon reaching the desired reaction temperature, sodium bicarbonate was added. The pH of the reaction mixture is maintained between 7,0 and 7,5. If necessary, NaOH is added.
(§2) In the examples described below, different additives were tested for their ability to inhibit the formation of nitrosamines. Each time, during the reaction, an amount of inhibitor was added which corresponds to 0,1% by weight of the amount of added amido-amine raw material.

The conditions of series [2]: for Content of nitrosamines: cocamidopropylamine oxide synthesis, additive 0,1% by weight on amido-amine; for inhibitory effect on the formation of nitrosamines: result in words, tertiary alkylamine oxide (cocamidopropylamine oxide) synthesis. As for the experimental part: For the measurement, gas chromatography in combination with a thermal energy analyzer (GC-TEA) is used. In measurements using this technique, the so-called apparent total N-nitroso compounds (ATNC) are determined by a chemical denitrosation and detection of the released […] in µg/kg (ppb). This content is also determined by denitrosation of an N-nitrosodiisopropanolamine (NDiPLA) calibration standard.
as §1, §2
The nitrosamine content was determined with the aid of a chemical denitrosation technique and measurement with a thermal energy analyzer. The detection limit of the method used was 50 µg total content of N-nitroso compounds/kg.

Read-outs that look alike come from different tables or passages of the source.

As for `O=C(O)CN(CCN(CC(=O)O)CC(=O)O)CCN(CC(=O)O)CC(=O)O` [DTPA Na, diethylene triamine pentaacetic acid], the Colour in series [1] (Temp 50 °C) worked out at 27 Apha.

Turning to `O=C(O)CN(CCN(CC(=O)O)CC(=O)O)CC(=O)O` [EDTA, ethylenediaminetetraacetic acid], the Content of nitrosamines in series [2] (Temp 50 °C) stood at 660 ppb; in series [2] (Temp 70 °C), 1550 ppb. In addition, the “inhibitory effect on the formation of nitrosamines” value in series [2] is “insufficiently able to inhibit the formation of nitrosamines”. Also, the Colour stood at 27 Apha in series [1] (Temp 50 °C) and 37 Apha in series [1] (Temp 70 °C).

For the molecule `O=P(O)(O)CN(CCN(CP(=O)(O)O)CP(=O)(O)O)CCN(CP(=O)(O)O)CP(=O)(O)O` [DTPMP, diethylenetriamine penta(methylene phosphonic acid)], the Content of nitrosamines in series [2] (Temp 50 °C) amounted to 1637 ppb; in series [2] (Temp 70 °C), 765 ppb. Also, the “inhibitory effect on the formation of nitrosamines” value in series [2] was “insufficiently able to inhibit the formation of nitrosamines”. For the same molecule, the Colour turned out to be 50 Apha in series [1] (Temp 50 °C) and 24 Apha in series [1] (Temp 70 °C).

Source of the values: EP3092214B1, “NITROSAMINE/NITRITE INHIBITION IN TERTIARY ALKYLAMINE OXIDE COMPOSITIONS” (EOC Surfactants N.V., priority 2014, dated 2015).
